In the supplement of paper PMC11451515:

Tested on: NOMO1
Assay: cell viability relative to DMSO control; higher = less cytotoxic
Settings: 48 h
Summary of the method: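 Viability is expressed as a percentage of DMSO wells within each plate, and cell-free wells serve as background. Seeding densities in the 1536-well plates (5 μl) were 500 cells/well for NOMO1 or SEM leukemia cells and 1000 cells/well for P12-Ichikawa. Each line was adapted for at least four passages in each medium. Library compounds in DMSO were pin-dosed at 47 μM to 0.79 nM (11 points, threefold), and CellTiter-Glo One luminescence was read after 48 h at 37°C.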

[1] = RPMI 5 mM glucose + 10% dialyzed FBS, 0.000781 µM
[2] = RPMI 5 mM glucose + 10% dialyzed FBS, 0.00234 µM
[3] = RPMI 5 mM glucose + 10% dialyzed FBS, 0.00702 µM
[4] = RPMI 5 mM glucose + 10% dialyzed FBS, 0.0211 µM
[5] = RPMI 5 mM glucose + 10% dialyzed FBS, 0.0632 µM
[6] = RPMI 5 mM glucose + 10% dialyzed FBS, 0.19 µM
[7] = RPMI 5 mM glucose + 10% dialyzed FBS, 0.569 µM
[8] = RPMI 5 mM glucose + 10% dialyzed FBS, 1.71 µM
[9] = RPMI 5 mM glucose + 10% dialyzed FBS, 5.12 µM
[10] = RPMI 5 mM glucose + 10% dialyzed FBS, 15.4 µM
[11] = RPMI 5 mM glucose + 10% dialyzed FBS, 46.1 µM
[12] = HPLM + 10% dialyzed FBS, 0.000781 µM
[13] = HPLM + 10% dialyzed FBS, 0.00234 µM
[14] = HPLM + 10% dialyzed FBS, 0.00702 µM
[15] = HPLM + 10% dialyzed FBS, 0.0211 µM
[16] = HPLM + 10% dialyzed FBS, 0.0632 µM
[17] = HPLM + 10% dialyzed FBS, 0.19 µM
[18] = HPLM + 10% dialyzed FBS, 0.569 µM
[19] = HPLM + 10% dialyzed FBS, 1.71 µM
[20] = HPLM + 10% dialyzed FBS, 5.12 µM
[21] = HPLM + 10% dialyzed FBS, 15.4 µM
[22] = HPLM + 10% dialyzed FBS, 46.1 µM
[23] = RPMI 5 mM glucose + 10% FBS, 0.000781 µM
[24] = RPMI 5 mM glucose + 10% FBS, 0.00234 µM
[25] = RPMI 5 mM glucose + 10% FBS, 0.00702 µM
[26] = RPMI 5 mM glucose + 10% FBS, 0.0211 µM
[27] = RPMI 5 mM glucose + 10% FBS, 0.0632 µM
[28] = RPMI 5 mM glucose + 10% FBS, 0.19 µM
[29] = RPMI 5 mM glucose + 10% FBS, 0.569 µM
[30] = RPMI 5 mM glucose + 10% FBS, 1.71 µM
[31] = RPMI 5 mM glucose + 10% FBS, 5.12 µM
[32] = RPMI 5 mM glucose + 10% FBS, 15.4 µM
[33] = RPMI 5 mM glucose + 10% FBS, 46.1 µM

| SMILES | cell viability [1] | cell viability [2] | cell viability [3] | cell viability [4] | cell viability [5] | cell viability [6] | cell viability [7] | cell viability [8] | cell viability [9] | cell viability [10] | cell viability [11] | cell viability [12] | cell viability [13] | cell viability [14] | cell viability [15] | cell viability [16] | cell viability [17] | cell viability [18] | cell viability [19] | cell viability [20] | cell viability [21] | cell viability [22] | cell viability [23] | cell viability [24] | cell viability [25] | cell viability [26] | cell viability [27] | cell viability [28] | cell viability [29] | cell viability [30] | cell viability [31] | cell viability [32] | cell viability [33] |
| --- | --- | --- | --- | --- | --- | --- | --- | --- | --- | --- | --- | --- | --- | --- | --- | --- | --- | --- | --- | --- | --- | --- | --- | --- | --- | --- | --- | --- | --- | --- | --- | --- | --- |
| O=[N+]([O-])c1cn2c(n1)OC[C@@H](OCc1ccc(OC(F)(F)F)cc1)C2 | 120% | 141% | 115% | 126% | 145% | 142% | 148% | 118% | 138% | 139% | 120% | – | – | – | – | – | – | – | – | – | – | – | – | – | – | – | – | – | – | – | – | – | – |
| C#Cc1cccc(Nc2ncnc3cc(OCCOC)c(OCCO)cc23)c1 | 118% | 123% | 98.2% | 112% | 104% | 112% | 118% | 92.2% | 104% | 94.7% | 41.7% | 135% | 110% | 119% | 119% | 125% | 116% | 100% | 68.7% | 63.3% | 69.9% | 28.1% | 118% | 105% | 110% | 94.6% | 118% | 104% | 112% | 94.2% | 103% | 93.2% | 33.9% |
| Cc1ccc(C(C)(O)c2nc3ccccc3s2)c(C)c1 (stereo not given) | 107% | 107% | 104% | 113% | 113% | 114% | 108% | 117% | 104% | 100% | 39.2% | 88.5% | 124% | 115% | 109% | 130% | 127% | 113% | 132% | 98.3% | 55.7% | 28.8% | 95.7% | 101% | 105% | 113% | 105% | 113% | 110% | 114% | 116% | 52.6% | 21.1% |
| COCCOC(=O)C/1=C(C)/NC/2=C(C1C3=CC=CC(=C3)O)/C(=O)CC(C2)C4=C(OC)C=CC=C4 (stereo not given) | 89.4% | 105% | 99.7% | 99.6% | 114% | 109% | 112% | 99.2% | 109% | 91.4% | 85.2% | 96.9% | 105% | 93.2% | 118% | 116% | 104% | 124% | 97.9% | 102% | 87.5% | 59.3% | 82.5% | 89.6% | 110% | 118% | 119% | 99.7% | 99.7% | 99.5% | 97.3% | 96.9% | 78.5% |
| CC1(C)[C@@H](O[C@H]2O[C@H](C(=O)O)[C@@H](O)[C@H](O)[C@H]2O[C@@H]2O[C@H](C(=O)O)[C@@H](O)[C@H](O)[C@H]2O)CC[C@]2(C)[C@H]3C(=O)C=C4[C@@H]5C[C@@](C)(C(=O)O)CC[C@]5(C)CC[C@@]4(C)[C@]3(C)CC[C@@H]12 | 109% | 123% | 134% | 142% | 154% | 145% | 136% | 160% | 154% | 140% | 161% | – | – | – | – | – | – | – | – | – | – | – | – | – | – | – | – | – | – | – | – | – | – |
| C[C@H](NC(=O)C(=O)Nc1ccccc1C(C)(C)C)C(=O)N[C@@H](CC(=O)O)C(=O)COc1c(F)c(F)cc(F)c1F | – | – | – | – | – | – | – | – | – | – | – | 124% | 120% | 133% | 123% | 142% | 137% | 123% | 141% | 121% | 51.6% | 39% | 115% | 117% | 121% | 118% | 122% | 129% | 131% | 116% | 122% | 89.1% | 26.5% |
| C[C@@H]1CC[C@@]2(OC1)O[C@H]3C[C@H]4[C@@H]5C/C=C6/C[C@H](CC[C@]6(C)[C@H]5CC[C@]4(C)[C@H]3[C@@H]2C)O[C@@H]7O[C@H](CO)[C@@H](O[C@@H]8O[C@@H](C)[C@H](O)[C@@H](O)[C@H]8O)[C@H](O)[C@H]7O[C@@H]9O[C@@H](C)[C@H](O)[C@@H](O)[C@H]9O | – | – | – | – | – | – | – | – | – | – | – | 108% | 122% | 122% | 127% | 142% | 136% | 141% | 152% | 132% | 124% | 8.71% | – | – | – | – | – | – | – | – | – | – | – |
| Cc1ccc(NC(=O)C2(c3ccc4c(c3)OC(F)(F)O4)CC2)nc1-c1cccc(C(=O)O)c1 | 99.8% | 99.8% | 92.1% | 110% | 102% | 56.8% | 27% | 11.4% | 8.3% | 7.38% | 4.48% | 107% | 122% | 95.4% | 102% | 98.8% | 53.4% | 19% | 9.04% | 7.86% | 6.36% | 4.68% | 97.6% | 93.2% | 99.6% | 96.9% | 91.6% | 43.4% | 17.4% | 10.2% | 7.42% | 6.77% | 4.07% |
| Nc1nc(-c2nn(Cc3ccccc3F)c3ncccc23)nc(N)c1N1CCOCC1 | 96.3% | 107% | 107% | 110% | 123% | 106% | 111% | 116% | 108% | 121% | 110% | 75.2% | 103% | 115% | 102% | 119% | 122% | 122% | 122% | 130% | 112% | 92.1% | 88.5% | 93.8% | 106% | 107% | 110% | 115% | 113% | 120% | 104% | 112% | 113% |
